In publication PMC7617978, “Anti-trypanosomal quinazolines targeting lysyl-tRNA synthetases show partial efficacy in a mouse model of acute Chagas disease” (Science translational medicine, 2025):

How the values were obtained:
CYP3A4 = CYP3A4 (Homo sapiens, UniProt P08684); test: In vitro CYP inhibition, 3A4; type: in vitro ADME
Protocol: Compounds were screened for CYP inhibition activity using the protocol established by TCG Lifesciences (India). The activity of five CYP450 isoforms: 1A2; 2C9; 2D6, 3A4; and 2C19 was monitored in the presence of test or control (miconazole) compounds at 10 µM. Reactions were terminated after 10 min (30 min for CYP2C19) by the addition of acetonitrile, centrifuged and analysed via LC-MS/MS. […]

[1] = test system: T. cruzi CL Brener strain; test: Bioluminescent mouse model of acute T. cruzi infection; type: in vivo, BALB/c mice; details: 50 mg/kg BID oral, 5 days, from 10 days post-infection, bioluminescence imaging
Protocol: Female BALB/c mice (aged 6-7 weeks), purchased from Charles River (UK), were maintained under specific pathogen-free conditions in individually ventilated cages, with a 12 h light/dark cycle. They had access to food and water ad libitum. Mice were infected by intraperitoneal injection (i.p) of 1x10^3 bloodstream trypomastigotes derived from CB17 SCID mouse blood.
Compounds were prepared in 5% (v/v) dimethyl sulfoxide /95% HPMC suspension vehicle (0.5% (w/v) hydroxypropyl methylcellulose, 0.5% (v/v) benzyl alcohol, 0.4% (v/v) Tween 80 in Milli-Q water). Mice were treated as outlined in Fig. 5, with compounds administered by oral gavage. At different days after infection, mice were injected with d-luciferin (150 mg/kg) i.p., anaesthetized using 2.5% (v/v) gaseous isoflurane and imaged using an IVIS Spectrum (Revvity, Hopkinton, MA, USA) 5-10 min later. To estimate parasite burden, mice ventral and dorsal regions of interest were drawn using Living Image 4.7.3 to quantify bioluminescence expressed as total flux (photons/second; p/s). Regions of interest data from infected and not-infected mice were used as controls. Exposure times varied between 30 sec and 5 min, depending on the signal intensity.

Sequence of CYP3A4 (P08684 whole entry, canonical isoform): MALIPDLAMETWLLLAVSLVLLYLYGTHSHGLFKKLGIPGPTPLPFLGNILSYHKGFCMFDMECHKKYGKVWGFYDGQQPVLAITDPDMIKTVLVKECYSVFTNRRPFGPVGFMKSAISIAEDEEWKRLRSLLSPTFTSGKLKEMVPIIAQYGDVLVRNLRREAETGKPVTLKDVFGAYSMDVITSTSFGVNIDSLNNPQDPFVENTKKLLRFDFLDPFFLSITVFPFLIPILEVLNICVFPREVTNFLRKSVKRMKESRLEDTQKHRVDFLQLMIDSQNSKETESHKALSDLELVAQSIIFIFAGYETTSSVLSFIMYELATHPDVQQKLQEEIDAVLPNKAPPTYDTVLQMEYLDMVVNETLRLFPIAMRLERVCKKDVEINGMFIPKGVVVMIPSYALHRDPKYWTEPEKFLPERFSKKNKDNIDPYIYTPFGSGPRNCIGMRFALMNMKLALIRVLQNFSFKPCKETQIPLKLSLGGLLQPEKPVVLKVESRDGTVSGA

`Cc1nc(N)c2c(F)c(F)c(SC3CCCCC3)c(F)c2n1` [DMU759, 7-(Cyclohexylthio)-5,6,8-trifluoro-2-methylquinazolin-4-amine] was tested, and the inhibition at 10 min, 10 µM (CYP3A4) was 0% and the “reduction of parasite burden (parasitemia)” value [1] was “up to 81%”.
